Values after ≈ are worked out from the molar mass of the structure shown.
How the values were obtained:
Staphylococcus aureus = assay: MIC50 mastitis pathogens, broth dilution; type: cell-based; conditions: S. aureus, 7 to 12 isolates, 24 hours
Description: (§1) The activity of several compounds against bacterial mastitis pathogens has been tested under in-vitro conditions according to a recognized procedure (CLSI, document […]-A3, 2008). In this test 7 to 12 representative bacteria belonging to 7 bacterial species that typically cause mastitis in dairy cattle, i.e. Staphylococcus aureus, coagulase negative staphylococci (CNS), Streptococcus uberis, Streptococus dysgalactiae, Streptococcus agalactiae, Arcanobacterium pyogenes and Escherichia coli, were exposed to two-fold dilutions of the test compounds. After 24 hours of incubation the concentration that inhibited the growth of this bacteria was determined. It could be shown that all these bacterial mastitis pathogens were highly susceptible to the test compounds.

Arcanobacterium pyogenes = assay: MIC50 mastitis pathogens, broth dilution; type: cell-based; conditions: Trueperella pyogenes, A. pyogenes, 7 to 12 isolates, 24 hours
Description: as §1

Streptococcus agalactiae = assay: MIC50 mastitis pathogens, broth dilution; type: cell-based; conditions: Str agalactiae, 7 to 12 isolates, 24 hours
Description: as §1

[1] = system: Streptococus dysgalactiae; assay: MIC50 mastitis pathogens, broth dilution; type: cell-based; conditions: Str dysgalactiae, 7 to 12 isolates, 24 hours
Description: as §1

[2] = system: coagulase negative staphylococci (CNS); assay: MIC50 mastitis pathogens, broth dilution; type: cell-based; conditions: 7 to 12 isolates, 24 hours
Description: as §1

Streptococcus uberis = assay: MIC50 mastitis pathogens, broth dilution; type: cell-based; conditions: Str uberis, 7 to 12 isolates, 24 hours
Description: as §1

Escherichia coli = assay: MIC50 mastitis pathogens, broth dilution; type: cell-based; conditions: E. coli, 7 to 12 isolates, 24 hours
Description: as §1

[3] = system: M. hemolytica KB346 (Tilmicosin-low sensitivity strain); assay: Paper disc assay, M. hemolytica KB346; type: cell-based, Mannhemia hemolytica
Protocol: (§2) (1) Antibacterial activities against Mannheimia and Pasteurella were determined by the following steps: • 1) M. hemolytica KB345 (Tilmicosin-sensitivity strain) and M. hemolytica KB346 (Tilmicosin-low sensitivity strain) were provided. KB 345 strain stored at −80° C. was seeded to BHIB agar medium (10 mL) by using Microbank beads (Pro-Lab) and platinum nail. After statically incubating the KB 345 strain for 24 hours at 37° C., it was seeded to maintaining slant BHIB agar medium (7 mL) by using platinum loop, further statically incubated for 24 hours at 37° C. to obtain slant. One platinum loop of KB 345 strain stored at the slant was inoculated into a large test tube charged with BHIB liquid medium (10 mL) and then incubated for 24 hours at 37° C. with shaking. • 2) A paper disc (ADVANTEC, Φ:6 mm) was impregnated with a solution of test compound and dried under reduced pressure. • 3) To a melted BHIB agar medium was inoculated 1% of the broth obtained from step 1) above to prepare a test plate. After the medium set, the paper disc prepared in step 2) above was put on the plate and it was incubated at 37° C. • 4) After one day, the inhibition zone diameter and clarity (A to E) were determined. For KB346 strain, the same procedures were repeated.

[4] = system: M. hemolytica KB345 (Tilmicosin-sensitivity strain); assay: Paper disc assay, M. hemolytica KB345; type: cell-based, Mannhemia hemolytica
Protocol: as §2

[5] = system: Actinobacillus pleuropneumoniae, 6 isolates; assay: MIC against Actinobacillus pleuropneumoniae isolates; type: cell-based
Protocol: (§3) Minimal inhibitory concentrations (MICs) were determined against the most prevalent pathogens in cattle (Mannheimia Haemolytica, 3 isolates) and swine (A. pleuropneumoniae, 6 isolates). In addition the activity of several compounds was tested against two bacterial species, i.e. Mannheimia haemolytica and Actinobacillus pleuropneumoniae, which are considered as the most important bacterial respiratory pathogens in cattle and swine, respectively.

[6] = system: Mannheimia haemolytica, 3 isolates; assay: MIC against Mannheimia haemolytica isolates; type: cell-based
Protocol: as §3

[7] = system: Bacillus subtilis ATCC6633; assay: Paper disc assay, Bacillus subtilis; type: cell-based; conditions: S
Protocol: (§4) (2) Antibacterial activities against other bacteria were determined with Micrococcus luteus ATCC9341 (1), Bacillus subtilis […] (s), Escherichia coli NIHJ (c), Xanthomonas campestris KB88 (X), Mucor racemosus IFO 4581 (Mu) and Candida albicans ATCC 64548 (Ca).
(§5) Bacillus subtilis ATCC6633 was incubated in Davis synthetic medium and then the seed broth was combined with the medium in the ratio of 1:99 to obtain a test plate. Micrococcus luteus ATCC9341, Escherichia coli NIHJ and Xanthomonas campestris KB88 were respectively incubated in Nutrient agar medium and inoculated at 0.2%, 0.5% and 1.0%. Mucor racemosus IFO 4581 and Candida albicans ATCC 64548 were respectively incubated in GY agar medium and then inoculated at 0.3% and 0.2%.
(§6) A paper disc (ADVANTEC, Φ:6 mm) was impregnated with a solution of test compound and dried under reduced pressure. The paper disc was put on the test plate and it was incubated for 24 hours at 37° C. After incubation, the inhibition zone diameter and clarity (A to E) were determined.

[8] = system: Xanthomonas campestris KB88; assay: Paper disc assay, Xanthomonas campestris; type: cell-based; conditions: X
Protocol: as §4, §5, §6

[9] = system: Micrococcus luteus ATCC9341; assay: Paper disc assay, Micrococcus luteus; type: cell-based; conditions: column 1
Protocol: as §4, §5, §6

CC[C@H]1OC(=O)C[C@@H](O)[C@H](C)[C@@H](O[C@@H]2OC(C)[C@@H](O)C(N(C)C)C2O)[C@@H](CCN(C)Cc2cn(-c3cnc4ccccc4c3)nn2)C[C@@H](C)C(=O)/C=C/C(C)=C/[C@@H]1CO (stereo partly shown) [YT650]
MIC50 (Staphylococcus aureus): 0.25 µg/mL (≈ 0.304 µM) | MIC50 (Arcanobacterium pyogenes): 0.004 µg/mL (≈ 0.00487 µM) | MIC50 (Streptococcus agalactiae): 0.008 µg/mL (≈ 0.00974 µM) | MIC50 [1]: 0.03 µg/mL (≈ 0.0365 µM) | MIC50 [2]: 0.25 µg/mL (≈ 0.304 µM) | MIC50 (Streptococcus uberis): 0.03 µg/mL (≈ 0.0365 µM) | MIC50 (Escherichia coli): 8 µg/mL (≈ 9.74 µM)

CCC1OC(=O)CC(O)C(C)C(OC2OC(C)C(O)C(N(C)C)C2O)C(CC=O)CC(C)C(=O)C=CC(C)=CC1CN=[N+]=[N-] (stereo not shown) [YT107, 23-azido-23-deoxo-5-O-mycaminosyltylonolide]
Inhibition zone ([3]; 30 mg/6 mm disk, Table 5): 10.5 mm | Inhibition zone ([3]; 100 mg/6 mm disk, Table 5): 15.0 mm | Inhibition zone ([4]; 3 mg/6 mm disk, Table 4): 12.0 mm | Inhibition zone ([4]; 10 mg/6 mm disk, Table 4): 16.0 mm | Inhibition zone ([4]; 30 mg/6 mm disk, Table 4): 18.0 mm | Inhibition zone ([4]; 100 mg/6 mm disk, Table 4): 21.5 mm

CCC1OC(=O)CC(O)C(C)C(OC2OC(C)C(O)C(N(C)C)C2O)C(CC=O)CC(C)C(=O)C=CC(C)=CC1CI (stereo not shown) [YT111]
Inhibition zone ([3]; 30 mg/6 mm disk, Table 5): 8.5 mm | Inhibition zone ([3]; 100 mg/6 mm disk, Table 5): 13.0 mm | Inhibition zone ([4]; 3 mg/6 mm disk, Table 4): 11.5 mm | Inhibition zone ([4]; 10 mg/6 mm disk, Table 4): 15.5 mm | Inhibition zone ([4]; 30 mg/6 mm disk, Table 4): 20.0 mm | Inhibition zone ([4]; 100 mg/6 mm disk, Table 4): 25.0 mm

CC[C@H]1OC(=O)C[C@@H](O)[C@H](C)[C@@H](O[C@@H]2OC(C)[C@@H](O)C(N(C)C)C2O)[C@@H](CCN(C)Cc2cn(-c3cnc4ccccc4c3)nn2)C[C@@H](C)C(=O)/C=C/C(C)=C/[C@@H]1CN(C)C (stereo partly shown) [YT770]
MIC50 (Staphylococcus aureus): 0.25 µg/mL (≈ 0.295 µM) | MIC50 (Arcanobacterium pyogenes): ≤ 0.015 µg/mL | MIC50 (Streptococcus agalactiae): ≤ 0.015 µg/mL | MIC50 [1]: 0.03 µg/mL (≈ 0.0354 µM) | MIC50 [2]: 0.25 µg/mL (≈ 0.295 µM) | MIC50 (Streptococcus uberis): 0.03 µg/mL (≈ 0.0354 µM) | MIC50 (Escherichia coli): 4 µg/mL (≈ 4.72 µM)

CCC1OC(=O)CC(O)C(C)C(OC2OC(C)C(O)C(N(C)C)C2O)C(CCn2cc(-c3ccccc3)nn2)CC(C)C(=O)C=CC(C)=CC1CO (stereo not shown) [YT112, 20-(4-phenyl-1H-1,2,3-triazol-1-yl)-20-deoxo-5-O-mycaminosyltylonolide]
MICs ([5]; pleuropneumoniae isolate 1): 4 µg/mL | MICs ([5]; pleuropneumoniae isolate 2): 4 µg/mL | MICs ([5]; pleuropneumoniae isolate 3): 4 µg/mL | MICs ([5]; pleuropneumoniae isolate 4): 8 µg/mL | MICs ([5]; pleuropneumoniae isolate 5): 4 µg/mL | MICs ([5]; pleuropneumoniae isolate 6): 8 µg/mL | Inhibition zone ([3]; 100 mg/6 mm disk, Table 5): 11.5 mm | MICs ([6]; M. haemolytica isolate 1): 8 µg/mL | MICs ([6]; M. haemolytica isolate 2): 4 µg/mL | MICs ([6]; M. haemolytica isolate 3): 8 µg/mL | Inhibition zone ([4]; 3 mg/6 mm disk, Table 4): 17.0 mm | Inhibition zone ([4]; 10 mg/6 mm disk, Table 4): 20.0 mm | Inhibition zone ([4]; 30 mg/6 mm disk, Table 4): 25.0 mm | Inhibition zone ([4]; 100 mg/6 mm disk, Table 4): 29.0 mm

CCC1OC(=O)CC(O)C(C)C(OC2OC(C)C(O)C(N(C)C)C2O)C(CCN=[N+]=[N-])CC(C)C(=O)C=CC(C)=CC1COC1OC(C)C(O)C(OC)C1OC (stereo not shown) [YT11, 20-azido-20-deoxodesmycosin]
Inhibition zone ([3]; 100 mg/6 mm disk, Table 3): 11.0 mm | Inhibition zone ([4]; 3 mg/6 mm disk, Table 2): 10.0 mm | Inhibition zone ([4]; 10 mg/6 mm disk, Table 2): 13.0 mm | Inhibition zone ([4]; 30 mg/6 mm disk, Table 2): 16.0 mm | Inhibition zone ([4]; 100 mg/6 mm disk, Table 2): 18.0 mm

CC[C@H]1OC(=O)C[C@@H](O)[C@H](C)[C@@H](O[C@@H]2O[C@H](C)[C@@H](O)[C@H](N(C)C)[C@H]2O)[C@@H](CC=O)C[C@@H](C)C(=O)/C=C/C(C)=C/[C@@H]1CO [YT106, 5-O-mycaminosyltylonolide]
Inhibition zone ([3]; 10 mg/6 mm disk, Table 5): 9.0 mm | Inhibition zone ([3]; 30 mg/6 mm disk, Table 5): 13.0 mm | Inhibition zone ([3]; 100 mg/6 mm disk, Table 5): 17.0 mm | Inhibition zone ([4]; 10 mg/6 mm disk, Table 4): 8.5 mm | Inhibition zone ([4]; 30 mg/6 mm disk, Table 4): 12.5 mm | Inhibition zone ([4]; 100 mg/6 mm disk, Table 4): 15.0 mm

CC[C@H]1OC(=O)C[C@@H](O)[C@H](C)[C@@H](O[C@@H]2OC(C)[C@@H](O)C(N(C)C)C2O)[C@@H](CCn2cc(CCCCCl)nn2)C[C@@H](C)C(=O)/C=C/C(C)=C/[C@@H]1CO[C@@H]1OC(C)[C@@H](O)C(OC)C1OC (stereo partly shown) [YT19, 20-(4-(4-chlorobutyl)-1H-1,2,3-triazol-1-yl)-20-deoxodesmycosin]
Inhibition zone ([7]; 0.1 mg/6 mm disc): 7 mm | Inhibition zone ([7]; 1 mg/6 mm disc): 10.5 mm | Inhibition zone ([7]; 10 mg/6 mm disc): 15 mm | Inhibition zone ([8]; 0.1 mg/6 mm disc): 7 mm | Inhibition zone ([8]; 1 mg/6 mm disc): 14.5 mm | Inhibition zone ([8]; 10 mg/6 mm disc): 23 mm | Inhibition zone ([9]; 0.1 mg/6 mm disc): 13 mm | Inhibition zone ([9]; 1 mg/6 mm disc): 19 mm | Inhibition zone ([9]; 10 mg/6 mm disc): 26 mm

CC[C@H]1OC(=O)C[C@@H](O)[C@H](C)[C@@H](O[C@@H]2OC(C)[C@@H](O)C(N(C)C)C2O)[C@@H](CCn2cc(-c3ccccc3)nn2)C[C@@H](C)C(=O)/C=C/C(C)=C/[C@@H]1CO[C@@H]1OC(C)[C@@H](O)C(OC)C1OC (stereo partly shown) [YT13, 20-(4-phenyl-1H-1,2,3-triazol-1-yl)-20-deoxodesmycosin]
Inhibition zone ([7]; 0.1 mg/6 mm disc): 9.5 mm | Inhibition zone ([7]; 1 mg/6 mm disc): 12 mm | Inhibition zone ([7]; 10 mg/6 mm disc): 15.5 mm | Inhibition zone ([8]; 0.1 mg/6 mm disc): 8 mm | Inhibition zone ([8]; 1 mg/6 mm disc): 17 mm | Inhibition zone ([8]; 10 mg/6 mm disc): 23.5 mm | Inhibition zone ([9]; 0.1 mg/6 mm disc): 15 mm | Inhibition zone ([9]; 1 mg/6 mm disc): 21.5 mm | Inhibition zone ([9]; 10 mg/6 mm disc): 27.5 mm

CC[C@H]1OC(=O)C[C@@H](O)[C@H](C)[C@@H](O[C@@H]2O[C@H](C)[C@@H](O)[C@H](N(C)C)[C@H]2O)[C@@H](CC=O)C[C@@H](C)C(=O)/C=C/C(C)=C/[C@@H]1CO[C@@H]1O[C@H](C)[C@@H](O)[C@@H](OC)[C@H]1OC [YT6, Desmycosin]
Inhibition zone ([3]; 3 mg/6 mm disk, Table 3): 8.5 mm | Inhibition zone ([3]; 10 mg/6 mm disk, Table 3): 13.5 mm | Inhibition zone ([3]; 30 mg/6 mm disk, Table 3): 17.5 mm | Inhibition zone ([3]; 100 mg/6 mm disk, Table 3): 21.0 mm | Inhibition zone ([4]; 30 mg/6 mm disk, Table 2): 10.5 mm

CCC1OC(=O)CC(O)C(C)C(OC2OC(C)C(O)C(N(C)C)C2O)C(CCCl)CC(C)C(=O)C=CC(C)=CC1COC1OC(C)C(O)C(OC)C1OC (stereo not shown) [YT8, 20-chloro-20-deoxodesmycosin]
Inhibition zone ([3]; 30 mg/6 mm disk, Table 3): 11.0 mm | Inhibition zone ([3]; 100 mg/6 mm disk, Table 3): 14.5 mm | Inhibition zone ([4]; 10 mg/6 mm disk, Table 2): 12.5 mm | Inhibition zone ([4]; 30 mg/6 mm disk, Table 2): 18.0 mm | Inhibition zone ([4]; 100 mg/6 mm disk, Table 2): 20.0 mm
